From ChEMBL document CHEMBL1914347, “Palmerolide macrolides from the Antarctic tunicate Synoicum adareanum” (Bioorg Med Chem, 2011)

Legend:
[1] = Inhibition of bovine brain Vo domain of V-ATPase activity assessed as ATP-mediated proton translocation by spectrophotometric analysis; parameters: species or system Bos taurus
[2] = Ratio of IC50 for bovine brain Vo domain of V-ATPase activity to IC50 for human UACC62 cells; parameters: species or system UACC-62
[3] = system: UACC-62; assay: Cytotoxicity against human UACC62 cells after 48 hrs by SRB assay; format: functional, cell-based; conditions: UACC-62, 48 h
[4] = Cytotoxicity against human NCI60 cells; format: functional; conditions: read-out: LC50 (the source's name)

| Structure (SMILES) | IC50 [1] | Ratio IC50 [2] | IC50 [3] | CC50 [4] |
| --- | --- | --- | --- | --- |
| C/C(C=O)=C\[C@@H](C)[C@H]1C/C(C)=C/C=C/CC[C@H](OC(N)=O)[C@@H](O)/C=C/[C@@H](O)CCC/C=C/C(=O)O1 [PALMEROLIDE E] | > 10000 µM | >2 | 5000 µM | – |
| C=C(C)CC(=O)N/C=C/C(C)=C/[C@@H](C)[C@H]1C/C(C)=C/C=C/CC[C@H](OC(N)=O)[C@@H](O)/C=C/[C@@H](O)CCC/C=C/C(=O)O1 [PALMEROLIDE F] | 0.063 µM | 0.083 | 0.758 µM | – |
| CC(C)=CC(=O)N/C=C/C(C)=C/[C@@H](C)[C@H]1C/C(C)=C/C=C/CC[C@H](OC(N)=O)[C@@H](O)/C=C/[C@@H](O)CCC/C=C/C(=O)O1 [PALMEROLIDE A] | 0.002 µM | 0.083 | 0.024 µM | 0.018 µM |
| C=C(C)C/C(C)=C\C(=O)N/C=C/C(C)=C/[C@@H](C)[C@H]1C/C(C)=C/C=C/CC[C@H](OC(N)=O)[C@@H](O)/C=C/[C@@H](O)CCC/C=C/C(=O)O1 [PALMEROLIDE D] | 0.025 µM | 12.5 | 0.002 µM | – |
| CC(C)=CC(=O)N/C=C/C(C)=C\[C@@H](C)[C@H]1C/C(C)=C/C=C/CC[C@H](OC(N)=O)[C@@H](O)/C=C/[C@@H](O)CCC/C=C/C(=O)O1 [PALMEROLIDE G] | 0.007 µM | 0.006 | 1.21 µM | – |
